Results taken from US20080300298A1, “Honokiol Derivates For the Treatment of Proliferative Disorders” (priority 2005, published 2008).

Tests used:
Assay in all cases: APO2.7 staining
Assay type in all cases: cell-based, human
normal PBMNCs = details: 15 ug/ml, 48 h, n=3
Procedure: (§1) Assessment of HNK-induced cytotoxicity against patient MM cells: […] A CD38^high fraction enriched for MM cells was determined in side and forward scatter panel in each case. The expression of CD138 on gated cells was also evaluated. After HNK-treatment for 48 h, cells were harvested and percentage of CD38^high cells with or without HNK-treatment was evaluated. Cell cycle analysis: MM cells cultured with HNK were harvested, fixed with 70% ethanol, and pretreated with 250 μg/mL of RNAse (Sigma, St Louis, Mo.). Cells were stained with propidium iodide (PI; 50 μg/mL; Sigma, St Louis, Mo.), and cell cycle profile was determined by using the program M software on an EPICS XL flow cytometer (Beckman Coulter, Hialeah, Fla.). Detection of apoptosis and caspase-3 activity: TdT-mediated d-UTP nick end labeling (TUNEL) assay (MBL, Nagoya, Japan) and APO 2.7 staining (Immunotech, Marseille, France) were used to determine apoptosis. In brief, cells were fixed and permeabilzed by 4% paraformaldehyde and 70% ethanol, respectively, and incubated with a mixture of FITC-dUTP and TdT for 1 h at 37° C. for TUNEL assay. For detection of mitochondrial membrane protein 7A6 expression on apoptotic cells, cells were incubated with APO 2.7 reagent for 20 minutes. Fluorescence intensity of TUNEL and APO 2.7 staining was determined using on EPICS XL flow cytometer. Cytotoxicity was determined by trypan blue exclusion assay. […] Cell growth and induction of apoptosis were determined both by colorimetric assay and now cytometric detection of APO2.7 after 48 h treatment. […] Proliferation of MM cells was then assessed by [^3H]-thymidine uptake. […] DNA synthesis was measured by [^3H]-thymidine uptake. […] Angiogenesis assay: The anti-angiogenic effect of HNK was determined using an In Vitro Angiogenesis Assay Kit (Chemicon, Temecula, Calif.). […] After 6 h, tube formation by endothelial cells was evaluated. Direct toxicity of HNK against HUVEC was determined by calorimetric assay. […]

RPM18226 cells = details: RPM18226, 10 ug/ml, 24 h
Procedure: as §1

MM.1S cells = details: 10 ug/ml, 24 h
Procedure: as §1

SMILES: C=CCc1ccc(O)c(-c2ccc(O)c(CC=C)c2)c1 [HNK, Honokiol]
- APO2.7 positive cells in normal PBMNCs (normal PBMNCs): did not induce APO2.7 positive cells
- APO2.7 positive cells (RPM18226 cells): 32.9±0.6%
- APO2.7 positive cells (MM.1S cells): 21.7±3.4%
